We go through 9 compounds from ChEMBL document CHEMBL5252595, “A Quarter Century of Marine Biodiscovery in Algoa Bay, South Africa” (J Nat Prod, 2023).

The term IC50 denotes the midpoint of a concentration-inhibition curve.

For one experiment, the system named is MDA-MB-231. The experiment in a line: Anticancer activity against human MDA-MB-231 cells assessed as cell growth incubated for 24 hrs by MTT assay. The class given is functional, cell-based. As to conditions: MDA-MB-231, 24 h. In general terms: Tetrazolium assays rely on reduction of a dye to a coloured formazan, in cell work by metabolically active cells.

In a further experiment the test system is NCI-H460. In words: Anticancer activity against human NCI-H460 cells assessed as cell growth incubated for 48 hrs by MTT assay. The experiment is classed as functional, cell-based. As to conditions: NCI-H460, 48 h.
A short description of experiment [1]: Anticancer activity against human U-87 MG cells assessed as cell growth inhibition. The experiment is classed as functional, U-87MG ATCC. As to conditions: read-out: LC50 (the source's name).
The subject of the next experiment is HCT-116. The experiment in a line: Anticancer activity against human HCT-116 cells assessed as cell growth inhibition. The experiment is classed as functional. As to conditions: read-out: LC50 (the source's name).
For a further experiment, the system named is SNB-19. In words: Anticancer activity against human SNB-19 cells assessed as cell growth inhibition. The experiment is classed as functional, cell-based.
For a further experiment, the system named is LOX IMVI. In words: Anticancer activity against human LOX IMVI cells assessed as cell growth inhibition. The class given is functional, cell-based.
A further experiment has as its system A549. The experiment in a line: Anticancer activity against human A549 cells assessed as cell growth inhibition. The experiment is classed as functional, cell-based.
For the next experiment, the system named is OVCAR-3. In words: Anticancer activity against human OVCAR-3 cells assessed as cell growth inhibition. The class given is functional, cell-based.
The nature of experiment [2]: Anticancer activity against human WHCO1 cells assessed as cell growth incubated for 24 hrs by MTT assay. As to conditions: WHCO1, 24 h. The experiment is classed as functional, cell-based.

Regarding `O=C1Cc2ccc(Br)cc2N1`, in the experiment with MDA-MB-231, the IC50 amounted to 74 µM.

Take `CO[C@H]1[C@H](O[C@@H]2C[C@@H]3C/C=C/C(=O)O[C@H](CO)C[C@H](O)[C@@H]4C[C@H](C)[C@H](C/C=C\C=C\[C@H](C)C[C@H](C2)O3)O4)O[C@@H](C)[C@H](O)[C@H]1O`: in the experiment on NCI-H460, the IC50 turned out to be 0.012 µM. Also, the CC50 in experiment [1] amounted to 0.00038 µM.

For `Clc1c[nH]c2cc(Br)ccc12`, in the experiment with MDA-MB-231, the IC50 was found to be 73 µM.

Regarding `CC.CCCCCCCC(=O)OC[C@@H]1C[C@H](O)[C@@H]2C[C@H](C)[C@H](C/C=C\C=C\[C@H](C)C[C@@H]3C[C@H](O[C@@H]4O[C@@H](C)[C@H](O)[C@@H](O)[C@H]4OC)C[C@H](C/C=C/C(=O)O1)O3)O2`, the CC50 came out at 0.054 µM with HCT-116 and 0.061 µM in experiment [1].

As to `CCCCCCCC/C=C/C=C/[C@@H](C)N`, the IC50 in the experiment with SNB-19, in the experiment on LOX IMVI, in the experiment with A549 and in the experiment with OVCAR-3 was 30 µM in each case.

`C/C(=C\Cc1cc(O)c(C)cc1O)CC/C=C(\C)CC(=O)CC(C)C`: the IC50 in [2] amounted to 9.5 µM.

Regarding `CCCC(=O)O[C@@H]1C[C@H]2C[C@@H](O[C@@H]3O[C@@H](C)[C@@H](O)[C@@H](O)[C@H]3OC)C[C@@H](C[C@@H](C)/C=C/C=C\C[C@@H]3O[C@@H](C[C@@H]3C)[C@@H](O)C[C@H]3C[C@@]1(O)C(=O)O3)O2`, the IC50 with NCI-H460 came to 0.044 µM.

In the case of `Brc1ccc2c(Br)c[nH]c2c1`, the IC50 in the experiment with MDA-MB-231 worked out at 118 µM.

Regarding `O=C1C[C@H]2S[C@H]3C[C@]2(C=C1Br)C1=C(N3)C(=O)c2[nH]cc3c2C1=NCC3` [DISCORHABDINE A], the IC50 in experiment [2] was 0.017 µM.
